From ChEMBL document CHEMBL4834440, “2,2,2-trifluoro-1-(1,4,5,6-tetrahydropyridin-3-yl)ethanone derivative as efflux pump inhibitor in Mycobacterium tuberculosis” (Bioorg Med Chem Lett, 2021)
Converted amounts (≈) assume the structure as drawn.

Tests used:
[1] = test system: Mycobacterium tuberculosis H37Rv; experiment: Inhibition of Multidrug resistance efflux pump in Mycobacterium tuberculosis H37Rv assessed as reduction in rifampicin MIC at 1.56 ug/ml measured by ethidium bromide accumulation assay; conditions: dose 1.56 µg/ml
[2] = test system: Mycobacterium tuberculosis H37Rv; experiment: Inhibition of Multidrug resistance efflux pump in Mycobacterium tuberculosis H37Rv assessed as relative final fluorescence at 6.26 ug/ml measured by ethidium bromide accumulation assay; conditions: dose 6.26 µg/ml
[3] = test system: Mycobacterium tuberculosis; experiment: Inhibition of Multidrug resistance efflux pump in Mycobacterium tuberculosis FURG-2 assessed as relative final fluorescence at 3.12 ug/ml measured by ethidium bromide accumulation assay; conditions: dose 3.12 µg/ml
[4] = test system: Mycobacterium tuberculosis; experiment: Antimycobacterial activity against multidrug-resistant Mycobacterium tuberculosis FURG-2 assessed as inhibition of bacterial growth measured by Resazurin microtitre assay; format: functional

O=C(C1=CN(CCc2ccccc2)C(NCCc2ccccc2)CC1)C(F)(F)F (centres undefined)
MIC [1]: 16 µg/mL
RFU [2]: -0.2
RFU [3]: 1.07
MIC [4]: 12.5 µg/mL (≈ 31.1 µM)
